What was measured:
[1] = target: T1, human 5-HT2A receptors (Homo sapiens, UniProt P28223); experiment: Phosphatidyl inositol (PI) hydrolysis assay at 5-HT2A; type: cell-based; parameters: expressed in transfected cells; conditions: mean ± SEM
Experimental: After lysing the cells with 50 μl of 0.1M formic acid, 20 μl each cell lysate was mixed with 80 μl (1 mg) RNA Binding YSi-SPA beads (GE Healthcare, Chalfont St. Giles, UK) on PICO plates (PerkinElmer) and counted on a TopCount (Packard).
Each curve is representative of at least three or more independent experiments.

[2] = target: human 5-HT6 receptor (Homo sapiens, UniProt P50406); experiment: R-SAT assay 5-HT6; type: cell-based
[3] = target: T2, human 5-HT1D receptor (Homo sapiens, UniProt P28221); experiment: R-SAT assay 5-HT1D; type: cell-based; conditions: Table 3, 5-HT1D; percent response of reference 5-CT
T2 construct: expressed in transfected cells; host or cells: NIH/3T3

[4] = target: T1, human 5-HT2A receptors; experiment: BRET2 beta-arrestin-2 recruitment assay at 5-HT2A; type: cell-based; parameters: expressed in transfected cells; host or cells: HEK-293T; conditions: mean ± SEM
Experimental: (§1) BRET-2 signals were measured using the multiplate reader Mithras 940LB (Berthold Technologies, Bad Wildbad, Germany) and were calculated as the ratio between the Renilla luciferase emission and the GFP2 emission corrected by the background emissions of non-transfected cells.

[5] = target: T3, human 5-HT7 receptor (Homo sapiens, UniProt P34969); experiment: R-SAT assay 5-HT7; type: cell-based; conditions: Table 3, 5-HT7; percent response of reference 5-CT
T3 construct: expressed in transfected cells; host or cells: NIH/3T3

[6] = target: human 5-HT1B receptor (Homo sapiens, UniProt P28222); experiment: R-SAT assay 5-HT1B; type: cell-based
[7] = target: T1, human 5-HT2A receptors; experiment: R-SAT functional assay at 5-HT2A; type: cell-based; parameters: expressed in transfected cells; host or cells: NIH-3T3
[8] = target: 5-HT2B receptors (Homo sapiens, UniProt P41595); experiment: R-SAT assay 5-HT2B; type: cell-based; parameters: expressed in transfected cells; host or cells: NIH/3T3
[9] = target: T4, human 5-HT2C(vgv) receptor (Homo sapiens, UniProt P28335, I156V/I160V/N158G); experiment: R-SAT assay 5-HT2C; type: cell-based; conditions: Table 3, 5-HT2C; percent response of reference 5-CT
T4 construct: expressed in transfected cells; host or cells: NIH/3T3
T4 sequence (P28335 33-458 I156V/N158G/I160V): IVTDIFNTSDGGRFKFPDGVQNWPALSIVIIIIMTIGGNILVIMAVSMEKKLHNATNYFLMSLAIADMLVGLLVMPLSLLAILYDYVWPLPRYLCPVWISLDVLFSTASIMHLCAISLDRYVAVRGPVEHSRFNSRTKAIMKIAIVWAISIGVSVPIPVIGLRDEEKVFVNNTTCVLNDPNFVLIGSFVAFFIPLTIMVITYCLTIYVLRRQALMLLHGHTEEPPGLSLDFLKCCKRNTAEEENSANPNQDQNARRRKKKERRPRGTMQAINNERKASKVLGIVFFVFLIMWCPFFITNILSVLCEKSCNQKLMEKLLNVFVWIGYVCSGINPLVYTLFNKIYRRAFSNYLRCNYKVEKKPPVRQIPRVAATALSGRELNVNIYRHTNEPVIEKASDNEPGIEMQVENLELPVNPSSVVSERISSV

[10] = target: T5, human D1 receptor (Homo sapiens, UniProt P21728); experiment: R-SAT assay D1; type: cell-based; conditions: Table 3, D1; percent response of reference SKF 38393
T5 construct: expressed in transfected cells; host or cells: NIH-3T3 (inferred: R-SAT host; D1 is in neither method list of b200)

[11] = target: T6, human alpha1A receptor (Homo sapiens, UniProt P35348); experiment: R-SAT assay α1A; type: cell-based; conditions: Table 3, α1A; percent response of reference Phenylephrine
T6 construct: expressed in transfected cells; host or cells: NIH/3T3 cells, transient transfection, pSI vector
T6 sequence (P35348 1-466): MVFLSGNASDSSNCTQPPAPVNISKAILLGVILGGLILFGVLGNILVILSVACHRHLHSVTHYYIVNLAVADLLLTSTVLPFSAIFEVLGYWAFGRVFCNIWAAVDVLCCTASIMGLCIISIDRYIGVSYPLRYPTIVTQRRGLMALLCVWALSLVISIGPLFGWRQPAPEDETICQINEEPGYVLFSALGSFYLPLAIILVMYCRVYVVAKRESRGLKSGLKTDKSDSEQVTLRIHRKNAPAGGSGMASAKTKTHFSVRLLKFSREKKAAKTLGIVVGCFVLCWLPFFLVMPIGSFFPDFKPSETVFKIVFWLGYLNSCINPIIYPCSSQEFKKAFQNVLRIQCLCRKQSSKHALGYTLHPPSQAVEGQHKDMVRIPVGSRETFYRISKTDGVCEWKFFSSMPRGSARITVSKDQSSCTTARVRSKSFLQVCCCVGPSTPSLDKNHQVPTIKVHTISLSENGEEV

[12] = target: T7, human alpha1B receptor (Homo sapiens, UniProt P35368); experiment: R-SAT assay α1B; type: cell-based; conditions: Table 3, α1B; percent response of reference Phenylephrine
T7 construct: expressed in transfected cells; host or cells: NIH/3T3 cells, transient transfection, pSI vector
T7 sequence (P35368 1-520): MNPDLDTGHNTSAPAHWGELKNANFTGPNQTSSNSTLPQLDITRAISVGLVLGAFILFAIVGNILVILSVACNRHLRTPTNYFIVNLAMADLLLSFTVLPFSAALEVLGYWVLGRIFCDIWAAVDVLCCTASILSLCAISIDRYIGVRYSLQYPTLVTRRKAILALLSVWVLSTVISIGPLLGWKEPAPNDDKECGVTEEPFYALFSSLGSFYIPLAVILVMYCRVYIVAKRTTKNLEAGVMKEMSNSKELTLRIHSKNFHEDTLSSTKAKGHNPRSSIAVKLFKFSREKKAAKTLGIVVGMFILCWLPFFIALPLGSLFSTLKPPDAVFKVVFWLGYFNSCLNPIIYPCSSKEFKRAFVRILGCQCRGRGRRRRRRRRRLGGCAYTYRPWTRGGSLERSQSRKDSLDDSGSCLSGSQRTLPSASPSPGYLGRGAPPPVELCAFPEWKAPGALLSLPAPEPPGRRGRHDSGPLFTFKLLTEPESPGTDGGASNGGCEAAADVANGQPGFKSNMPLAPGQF

[13] = target: T8, D2 receptors (Homo sapiens, UniProt P14416); experiment: R-SAT functional assay at D2; type: cell-based; parameters: expressed in transfected cells; host or cells: NIH-3T3
[14] = target: human D4 (variant 4.2) receptor (Homo sapiens, UniProt P21917, DEL265-296); type: cell-based
[15] = target: T8, D2 receptors; experiment: BRET2 beta-arrestin-2 recruitment assay at D2; type: cell-based; parameters: expressed in transfected cells; host or cells: HEK-293T
Experimental: as §1
Each curve is representative of two to three independent experiments.

[16] = target: T8, D2 receptors; experiment: GTPγS binding assay at D2; type: biochemical; parameters: expressed in transfected cells; conditions: percent response of reference ligand dopamine; mean ± SEM
Experimental: Cells were not centrifuged following cell scraping, but were collected directly into the ice-cold nitrogen cavitation chamber.
50 μl/well Wheat-Germ Agglutinin SPA beads (Perkin Elmer, Shelton, Conn.) were added to the plates and the plates incubated for 1 hour. The plates were then centrifuged at 1,000×g for 10 minutes and read on a Top Count NXT (Perkin Elmer, Shelton, Conn.).
To relate the results observed in R-SAT™ to a more conventional assay system, these ligands were also tested for the ability to induce GTPγS binding through D2 receptors.

[17] = target: T9, human D3 receptor (Homo sapiens, UniProt P35462); experiment: R-SAT assay D3; type: cell-based; conditions: Table 3, D3; percent response of reference Pergolide
T9 construct: expressed in transfected cells

[18] = target: T10, human alpha2C receptor (Homo sapiens, UniProt P18825); experiment: R-SAT assay α2C; type: cell-based; conditions: Table 3, α2C; percent response of reference UK 14,306
T10 construct: expressed in transfected cells; host or cells: NIH/3T3 cells, transient transfection, pSI vector
T10 sequence (P18825 1-462): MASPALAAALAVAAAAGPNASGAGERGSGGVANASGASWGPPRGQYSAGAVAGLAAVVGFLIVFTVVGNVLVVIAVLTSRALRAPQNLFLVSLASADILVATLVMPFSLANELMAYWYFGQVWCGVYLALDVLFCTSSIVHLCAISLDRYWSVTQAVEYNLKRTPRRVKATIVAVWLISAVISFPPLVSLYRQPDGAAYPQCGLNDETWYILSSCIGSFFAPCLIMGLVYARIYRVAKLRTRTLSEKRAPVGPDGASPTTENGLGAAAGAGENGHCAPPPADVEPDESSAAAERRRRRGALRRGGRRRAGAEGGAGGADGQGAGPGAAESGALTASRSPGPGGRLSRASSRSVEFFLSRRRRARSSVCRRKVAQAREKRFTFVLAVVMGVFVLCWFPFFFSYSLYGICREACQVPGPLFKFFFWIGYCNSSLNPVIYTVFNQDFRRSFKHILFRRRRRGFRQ

[19] = target: T11, human M5 receptor (Homo sapiens, UniProt P08912); experiment: R-SAT assay M5; type: cell-based; conditions: Table 3, M5; percent response of reference Carbachol
T11 construct: expressed in transfected cells; host or cells: NIH/3T3 cells, transient transfection, pSI vector

[20] = target: T12, human M2 receptor (Homo sapiens, UniProt P08172); experiment: R-SAT assay M2; type: cell-based; conditions: Table 3, M2; percent response of reference Carbachol
T12 construct: expressed in transfected cells; host or cells: NIH/3T3
T12 sequence (P08172 1-466): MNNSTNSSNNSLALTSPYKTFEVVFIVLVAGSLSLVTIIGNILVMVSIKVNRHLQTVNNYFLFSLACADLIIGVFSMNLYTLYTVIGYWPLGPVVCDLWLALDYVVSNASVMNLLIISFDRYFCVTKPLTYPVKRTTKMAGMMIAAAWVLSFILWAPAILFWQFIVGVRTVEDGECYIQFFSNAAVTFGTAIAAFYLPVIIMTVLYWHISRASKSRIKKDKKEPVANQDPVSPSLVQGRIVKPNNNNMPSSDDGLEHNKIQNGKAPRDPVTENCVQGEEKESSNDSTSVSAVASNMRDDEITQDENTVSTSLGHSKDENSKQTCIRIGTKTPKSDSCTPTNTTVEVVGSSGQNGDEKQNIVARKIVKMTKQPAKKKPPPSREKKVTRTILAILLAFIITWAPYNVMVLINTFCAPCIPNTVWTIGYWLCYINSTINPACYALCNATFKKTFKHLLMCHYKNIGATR

[21] = target: T13, human M4 receptor (Homo sapiens, UniProt P08173); experiment: R-SAT assay M4; type: cell-based; conditions: Table 3, M4; percent response of reference Carbachol
T13 construct: expressed in transfected cells; host or cells: NIH/3T3
T13 sequence (P08173 1-479): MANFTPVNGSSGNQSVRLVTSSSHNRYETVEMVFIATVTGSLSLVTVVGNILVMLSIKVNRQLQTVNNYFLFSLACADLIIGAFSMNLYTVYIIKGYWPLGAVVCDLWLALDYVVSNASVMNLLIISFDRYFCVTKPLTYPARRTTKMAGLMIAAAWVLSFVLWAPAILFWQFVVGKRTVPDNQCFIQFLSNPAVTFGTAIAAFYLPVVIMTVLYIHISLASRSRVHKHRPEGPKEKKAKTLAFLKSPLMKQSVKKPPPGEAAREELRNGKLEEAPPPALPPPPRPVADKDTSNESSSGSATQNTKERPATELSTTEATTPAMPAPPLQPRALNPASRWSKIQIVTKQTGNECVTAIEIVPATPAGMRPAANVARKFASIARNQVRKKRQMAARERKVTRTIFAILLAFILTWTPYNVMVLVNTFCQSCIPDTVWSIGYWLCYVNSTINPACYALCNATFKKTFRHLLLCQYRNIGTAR

[22] = percent response of reference ligand 5-HT

T8 sequence (P14416 1-414 isoform P14416-2): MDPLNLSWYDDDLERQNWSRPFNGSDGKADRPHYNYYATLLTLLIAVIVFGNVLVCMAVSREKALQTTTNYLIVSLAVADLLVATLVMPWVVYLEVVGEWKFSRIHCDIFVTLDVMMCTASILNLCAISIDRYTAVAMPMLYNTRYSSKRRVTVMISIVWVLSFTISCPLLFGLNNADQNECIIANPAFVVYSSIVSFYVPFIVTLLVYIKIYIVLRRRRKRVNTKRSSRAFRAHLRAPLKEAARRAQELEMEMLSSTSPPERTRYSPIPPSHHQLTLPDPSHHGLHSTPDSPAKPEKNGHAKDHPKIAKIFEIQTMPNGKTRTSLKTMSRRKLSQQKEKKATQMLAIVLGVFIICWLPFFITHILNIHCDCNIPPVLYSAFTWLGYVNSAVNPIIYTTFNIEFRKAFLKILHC
T1 sequence (P28223 whole entry): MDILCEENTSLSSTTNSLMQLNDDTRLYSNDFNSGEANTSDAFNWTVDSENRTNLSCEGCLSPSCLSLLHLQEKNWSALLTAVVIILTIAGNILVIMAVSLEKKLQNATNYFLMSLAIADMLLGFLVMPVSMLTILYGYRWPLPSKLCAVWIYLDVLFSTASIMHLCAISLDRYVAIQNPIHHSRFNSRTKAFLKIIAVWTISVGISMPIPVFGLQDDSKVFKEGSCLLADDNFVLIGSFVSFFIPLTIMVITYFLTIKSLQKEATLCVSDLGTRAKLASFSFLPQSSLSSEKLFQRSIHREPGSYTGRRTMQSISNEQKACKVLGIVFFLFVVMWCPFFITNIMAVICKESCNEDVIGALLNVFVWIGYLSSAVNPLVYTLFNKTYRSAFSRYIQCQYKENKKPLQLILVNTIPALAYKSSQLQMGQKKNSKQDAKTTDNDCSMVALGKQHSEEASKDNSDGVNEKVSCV
5-HT2B receptors, sequence (P41595 whole entry): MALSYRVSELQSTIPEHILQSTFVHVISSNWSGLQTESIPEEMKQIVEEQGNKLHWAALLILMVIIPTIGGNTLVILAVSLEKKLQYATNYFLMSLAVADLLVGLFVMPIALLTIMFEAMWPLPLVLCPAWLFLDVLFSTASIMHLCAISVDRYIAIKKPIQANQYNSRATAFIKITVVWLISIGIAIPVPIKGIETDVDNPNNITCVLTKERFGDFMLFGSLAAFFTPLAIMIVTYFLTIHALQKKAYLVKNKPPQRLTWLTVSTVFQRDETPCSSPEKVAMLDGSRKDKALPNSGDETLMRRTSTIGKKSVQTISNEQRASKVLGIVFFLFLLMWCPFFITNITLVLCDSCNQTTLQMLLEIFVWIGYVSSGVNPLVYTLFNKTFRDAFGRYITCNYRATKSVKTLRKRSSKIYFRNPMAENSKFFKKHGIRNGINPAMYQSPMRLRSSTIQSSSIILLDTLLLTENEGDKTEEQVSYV
human 5-HT6 receptor, sequence (P50406 whole entry): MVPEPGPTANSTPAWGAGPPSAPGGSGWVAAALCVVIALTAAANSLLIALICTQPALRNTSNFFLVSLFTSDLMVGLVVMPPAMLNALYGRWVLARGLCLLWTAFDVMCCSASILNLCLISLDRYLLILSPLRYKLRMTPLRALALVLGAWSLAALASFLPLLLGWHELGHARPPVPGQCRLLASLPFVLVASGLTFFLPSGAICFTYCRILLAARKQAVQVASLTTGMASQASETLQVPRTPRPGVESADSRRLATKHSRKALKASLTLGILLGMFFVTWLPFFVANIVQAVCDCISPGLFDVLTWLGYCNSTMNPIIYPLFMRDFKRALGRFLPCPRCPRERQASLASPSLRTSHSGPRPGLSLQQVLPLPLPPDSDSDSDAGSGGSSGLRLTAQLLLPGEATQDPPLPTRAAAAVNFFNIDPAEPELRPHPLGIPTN
human 5-HT1B receptor, sequence (P28222 whole entry): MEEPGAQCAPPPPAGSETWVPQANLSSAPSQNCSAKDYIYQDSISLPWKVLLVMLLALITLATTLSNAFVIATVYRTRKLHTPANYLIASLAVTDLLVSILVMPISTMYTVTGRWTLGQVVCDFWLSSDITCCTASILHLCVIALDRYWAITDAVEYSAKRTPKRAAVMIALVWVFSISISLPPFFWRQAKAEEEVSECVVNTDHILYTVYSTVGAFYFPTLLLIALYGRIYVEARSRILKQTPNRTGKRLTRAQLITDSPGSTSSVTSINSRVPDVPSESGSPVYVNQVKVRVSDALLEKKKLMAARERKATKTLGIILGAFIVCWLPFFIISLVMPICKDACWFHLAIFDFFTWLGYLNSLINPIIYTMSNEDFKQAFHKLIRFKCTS
T3 sequence (P34969 whole entry): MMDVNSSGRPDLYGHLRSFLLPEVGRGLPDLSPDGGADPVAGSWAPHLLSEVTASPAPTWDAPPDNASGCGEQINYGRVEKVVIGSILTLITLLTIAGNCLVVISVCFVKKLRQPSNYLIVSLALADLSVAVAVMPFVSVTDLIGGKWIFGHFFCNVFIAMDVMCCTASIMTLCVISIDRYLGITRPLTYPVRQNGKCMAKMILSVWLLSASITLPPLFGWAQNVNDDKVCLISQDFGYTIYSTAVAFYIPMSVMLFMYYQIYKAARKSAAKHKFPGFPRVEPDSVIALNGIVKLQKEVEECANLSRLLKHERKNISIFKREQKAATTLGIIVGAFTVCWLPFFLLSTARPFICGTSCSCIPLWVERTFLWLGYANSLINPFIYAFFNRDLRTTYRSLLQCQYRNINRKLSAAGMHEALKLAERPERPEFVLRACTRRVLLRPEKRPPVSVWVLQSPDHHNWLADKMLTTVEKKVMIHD
T5 sequence (P21728 whole entry): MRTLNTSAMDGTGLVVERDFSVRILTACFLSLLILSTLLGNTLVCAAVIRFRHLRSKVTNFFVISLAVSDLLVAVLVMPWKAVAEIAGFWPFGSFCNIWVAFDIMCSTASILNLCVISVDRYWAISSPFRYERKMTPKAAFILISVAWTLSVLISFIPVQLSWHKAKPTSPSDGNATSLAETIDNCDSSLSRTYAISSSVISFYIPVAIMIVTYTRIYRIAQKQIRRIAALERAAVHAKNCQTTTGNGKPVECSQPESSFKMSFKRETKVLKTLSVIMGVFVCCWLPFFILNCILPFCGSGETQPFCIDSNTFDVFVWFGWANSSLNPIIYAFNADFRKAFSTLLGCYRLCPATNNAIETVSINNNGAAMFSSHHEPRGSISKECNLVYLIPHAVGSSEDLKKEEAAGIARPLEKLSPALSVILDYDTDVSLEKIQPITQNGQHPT
human D4 (variant 4.2) receptor, sequence (P21917 with tags, fused parts or gaps DEL265-296): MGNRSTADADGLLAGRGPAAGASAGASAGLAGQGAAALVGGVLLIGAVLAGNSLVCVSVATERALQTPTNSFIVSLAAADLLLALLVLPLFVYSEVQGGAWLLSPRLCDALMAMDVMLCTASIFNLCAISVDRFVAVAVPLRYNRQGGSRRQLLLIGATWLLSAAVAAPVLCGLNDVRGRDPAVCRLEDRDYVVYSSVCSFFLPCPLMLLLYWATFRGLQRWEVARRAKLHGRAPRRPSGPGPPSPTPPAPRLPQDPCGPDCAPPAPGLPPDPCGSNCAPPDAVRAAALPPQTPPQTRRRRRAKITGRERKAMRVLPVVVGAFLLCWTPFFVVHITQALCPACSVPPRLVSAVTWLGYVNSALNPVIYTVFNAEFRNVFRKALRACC
T9 sequence (P35462 whole entry): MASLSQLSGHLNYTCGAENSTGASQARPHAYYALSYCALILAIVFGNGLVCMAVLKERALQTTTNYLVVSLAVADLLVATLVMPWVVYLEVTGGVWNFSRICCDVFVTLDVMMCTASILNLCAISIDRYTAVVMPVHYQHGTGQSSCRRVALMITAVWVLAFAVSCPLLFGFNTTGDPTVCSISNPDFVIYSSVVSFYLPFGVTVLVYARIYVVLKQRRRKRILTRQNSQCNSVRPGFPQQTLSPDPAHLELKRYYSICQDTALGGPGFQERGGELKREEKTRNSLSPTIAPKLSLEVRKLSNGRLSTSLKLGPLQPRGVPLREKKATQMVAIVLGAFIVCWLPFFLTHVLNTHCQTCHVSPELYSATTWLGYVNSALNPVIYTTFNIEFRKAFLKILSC
T2 sequence (P28221 whole entry): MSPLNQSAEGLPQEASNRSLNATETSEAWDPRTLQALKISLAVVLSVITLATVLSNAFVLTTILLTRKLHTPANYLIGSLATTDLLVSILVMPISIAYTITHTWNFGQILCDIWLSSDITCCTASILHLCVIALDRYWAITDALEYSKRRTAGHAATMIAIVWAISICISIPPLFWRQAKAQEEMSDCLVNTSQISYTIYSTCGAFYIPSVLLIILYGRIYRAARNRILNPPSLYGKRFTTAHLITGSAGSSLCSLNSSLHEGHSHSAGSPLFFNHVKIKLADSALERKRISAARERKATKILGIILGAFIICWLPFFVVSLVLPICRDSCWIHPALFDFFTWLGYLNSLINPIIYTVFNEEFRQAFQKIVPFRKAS
T11 sequence (P08912 whole entry): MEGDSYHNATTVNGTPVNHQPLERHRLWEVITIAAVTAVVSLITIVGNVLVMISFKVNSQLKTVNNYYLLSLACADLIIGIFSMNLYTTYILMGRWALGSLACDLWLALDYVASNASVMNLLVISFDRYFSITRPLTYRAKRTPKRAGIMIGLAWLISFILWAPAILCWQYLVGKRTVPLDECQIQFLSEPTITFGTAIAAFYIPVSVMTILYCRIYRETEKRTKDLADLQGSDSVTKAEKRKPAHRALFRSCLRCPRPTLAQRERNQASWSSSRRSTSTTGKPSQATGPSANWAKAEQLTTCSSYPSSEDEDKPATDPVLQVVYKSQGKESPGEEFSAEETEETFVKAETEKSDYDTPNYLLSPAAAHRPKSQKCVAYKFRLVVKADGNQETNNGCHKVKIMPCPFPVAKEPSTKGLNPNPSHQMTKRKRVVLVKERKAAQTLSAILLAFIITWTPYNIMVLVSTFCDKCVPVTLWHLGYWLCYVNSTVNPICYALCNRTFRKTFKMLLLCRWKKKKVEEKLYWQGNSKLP

NCCc1c[nH]c2ccc(C(N)=O)cc12 [5-CT, 5-carboxamidotryptamine, reference compound]
EC50 ([1]; negative logarithm of EC50 in molar (M), HEK 293T cells, read-out: PI Hydrolysis pEC50 (converted)): 2.51e-07 M | PI Hydrolysis Eff (%) [1, 22]: 92 ± 4% | EC50 [2]: 251 nM | Eff (%) ([2]; Table 3, 5-HT6, percent response of reference 5-CT): 100% | Eff (%) [3]: 100% | EC50 ([4]; negative logarithm of EC50 in molar (M), HEK 293T cells, read-out: BRET2 pEC50 (converted)): 2e-07 M | BRET2 Eff % [4, 22]: 98 ± 3% | Eff (%) [5]: 100% | EC50 [6]: 6.31 nM | Eff (%) ([6]; Table 3, 5-HT1B, percent response of reference 5-CT): 100% | EC50 ([7]; Table 1, negative logarithm of EC50 in molar (M), NIH3T3 cells, mean ± SEM, read-out: R-SAT pEC50 (converted)): 6.31e-08 M | R-SAT Eff(%) ([7]; Table 1, percent response of reference ligand 5-CT, mean ± SEM): 100 ± 0% | EC50 ([7]; Table 3, 5-HT2A, negative logarithm of EC50 in molar, read-out: pEC50 (converted)): 7.94e-08 M | Eff (%) ([7]; Table 3, 5-HT2A, percent response of reference 5-CT): 100% | EC50 [8]: 50.1 nM | Eff (%) ([8]; Table 3, 5-HT2B, percent response of reference 5-CT): 100% | Eff (%) [9]: 100%

Oc1cc2c(cc1O)C(c1ccccc1)CNCC2 (stereo not shown) [SKF 38393, reference compound]
Eff (%) [10]: 100%

CNC[C@H](O)c1cccc(O)c1 [Phenylephrine, reference compound]
Eff (%) [11]: 100% | Eff (%) [12]: 100%

CCCN1C[C@H](CSC)C[C@@H]2c3cccc4[nH]cc(c34)C[C@H]21 [Pergolide]
R-SAT Eff(%) ([13]; Table 2, percent response of reference ligand pergolide, mean ± SEM): 100 ± 0% | Eff (%) ([13]; Table 3, D2, percent response of reference Pergolide): 100% | Eff (%) [14]: 100% | agonist profile in BRET2 assays at D2 receptors [15]: partial agonists | BRET2 Eff % ([15]; percent response of reference ligand dopamine, mean ± SEM): 64 ± 3% | GTPγS Eff % [16]: 94 ± 7% | Eff (%) [17]: 100%

Brc1c(NC2=NCCN2)ccc2nccnc12 [UK 14,306, reference compound]
Eff (%) [18]: 100%

C[N+](C)(C)CCOC(N)=O [Carbachol, reference compound]
Eff (%) [19]: 100% | Eff (%) [20]: 100% | Eff (%) [21]: 100%

— US20130197032A1, “[…] COMPOUNDS FOR THE TREATMENT OF NEUROLOGICAL AND […] DISORDERS” (A. CARLSSON RESEARCH AB, priority 2010, published 2013)
